Measured values reported in US20230063230A1, “NURR1 RECEPTOR MODULATORS” (priority 2019, published 2023).

Columns and labels:
[1] = test system: Nurr1 target genes in MN9D cells; test: MN9D target gene transcription assay; assay type: cell-based; conditions: gene expression normalized to Hprt
Experimental: MN9D Assays. MN9Dtet-on cells were treated with 10 μM of each compound or DMSO (vehicle control) for 6 to 24 hrs. Total RNAs were isolated using Quick-RNA miniprep Plus (ZYMO Research, cat#: R^1058), and were subsequently reverse transcribed using High Capacity cDNA Reverse Transcription kit (Applied Biosystems, cat#: 4368814). SYBR Green quantitative real-time PCR analysis was performed using CFX96 Real Time system (BioRad). The following primer pairs were used for qPCR: Nurr1; 5′-[…]-3′ (SEQ ID NO:5) and 5′-[…]-3′ (SEQ ID NO:6), Pitx3; 5′-GCAACTGGCCGCCCAAGG-3′ (SEQ ID NO:7) and 5′-AGGCCCCACGTTGACCGA-3′ (SEQ ID NO:8), VMAT2; 5′-[…]-3′ (SEQ ID NO:9) and 5′-[…]-3′ (SEQ ID NO:10), TH; 5′-[…]-3′ (SEQ ID NO:11) and 5′-[…]-3′ (SEQ ID NO:12), HPRT; 5′-TGGGAGGCCATCACATTGT-3′ (SEQ ID NO:13) and 5′-[…]-3′ (SEQ ID NO:14). The levels of gene expression were normalized to the level of housekeeping gene (HPRT) expression.

Nurr1 [2] = target: T1, Nurr1 (Homo sapiens, UniProt P43354); test: Binding SPR
Target sequence in this assay (P43354 360-595 limits assumed): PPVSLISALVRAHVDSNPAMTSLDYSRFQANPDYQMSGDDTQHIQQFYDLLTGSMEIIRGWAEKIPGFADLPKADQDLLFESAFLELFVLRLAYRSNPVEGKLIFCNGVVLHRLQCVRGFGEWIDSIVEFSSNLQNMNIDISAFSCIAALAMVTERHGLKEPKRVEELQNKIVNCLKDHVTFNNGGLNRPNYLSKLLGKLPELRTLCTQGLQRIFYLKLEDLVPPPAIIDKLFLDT

[3] = target: Nurr1 ligand binding domain (Homo sapiens, UniProt P43354); test: Microscale thermophoresis (MST) binding assay; conditions: measured by microscale thermophoresis
Nurr1 ligand binding domain, sequence (P43354 360-595 limits assumed): as above
Experimental: Microscale thermophoresis (MST) assays. Data were collected using the Nanotemper Monolith NT.115 at a temperature of 25° C. The MST buffer used in each experiment was 25 mM HEPES (Sigma Aldrich), pH 7.4, 150 mM NaCl (Alfa Aesar), and 0.02% Pluronic (Sigma Aldrich). All samples were prepared using Protein LoBind tubes or deepwell plates (Eppendorf). The His-tagged Nurr1 was labeled with RED-tris-NTA dye (NT-647) according to the kit's protocol (Nanotemper). Dilutions of each ligand were carried out starting from DMSO stocks of 10 mM in DMSO. The analyte solutions in DMSO were added to aliquots of MST buffer to yield a DMSO concentration of 4%.
Two types of experiments were performed: endpoint and binding affinity assays. For the endpoint assays, equal amounts of the ligand solution and labeled Nurr1 were mixed to yield the final concentrations: 50 nM Nurr1, 25 nM RED-tris-NTA dye, 2% DMSO, and either 25 μM or 100 μM of the desired ligand in the MST buffer. […]
The Monolith NT.115 settings for all samples were 40% excitation power and 40% MST power. The initial fluorescence was recorded for 3 seconds and the thermophoresis fluorescence response was recorded for 20 seconds. […] Screening Analysis software (Nanotemper) was used to normalize the fluorescent response signals to the sample's initial fluorescence. […]

Nurr1 [4] = target: T1, Nurr1; test: Binding MST
Target sequence in this assay (P43354 360-595 limits assumed): as above

Pitx3 in MN9D = test: qPCR MN9D Pitx3; assay type: cell-based; conditions: cpds tested at 10 μM, analogs of compound 87
Nurr1 LBD = Nurr1 LBD (Homo sapiens, UniProt P43354); test: Differential scanning fluorimetry (DSF); assay type: binding
Nurr1 LBD, sequence (P43354 360-595 limits assumed): as above
Excerpt: Dopamine is broken down inside the neurons that produce it, generating oxygen free-radicals and other potentially damaging molecules (53). Among the reactive metabolites is 5,6-dihydroxyindole (DHI), a compound that undergoes spontaneous oxidation to a reactive quinone, which oligomerizes to form a polymer (neuromelanin) of unknown function. This polymer accounts for the dark appearance of nigrostriatal neurons in the normal adult CNS (54,55). Dopamine is also a central player in stress and addiction (3). It is clear that dopamine levels need to be tightly regulated in the CNS. Nurr1 controls all the genes required for dopamine synthesis, but its regulation is poorly understood as the receptor lacks both the canonical NR ligand binding pocket and the classic NR co-regulator binding surface (33). We postulated that Nurr1 might be regulated by dopamine itself, or one of its metabolites, and investigated this possibility using a combination of biophysical and structural techniques. […] Identifying stable analogs of DHI will enable more detailed studies of this intriguing biology.

TH in SHSY5Y = test: qPCR SHSY5Y TH; assay type: cell-based; conditions: Homo sapiens, SH-SY5Y, cpds tested at 10 μM
Nurr1 [5] = target: T1, Nurr1; test: Luciferase cellular assay; assay type: cell-based; parameters: expressed in transfected cells; host or cells: SK-N-BE(2)C cells (ATCC CRL-2268); conditions: cpds tested at 10 μM; analogs of compound 87
Target sequence in this assay (P43354 328-598): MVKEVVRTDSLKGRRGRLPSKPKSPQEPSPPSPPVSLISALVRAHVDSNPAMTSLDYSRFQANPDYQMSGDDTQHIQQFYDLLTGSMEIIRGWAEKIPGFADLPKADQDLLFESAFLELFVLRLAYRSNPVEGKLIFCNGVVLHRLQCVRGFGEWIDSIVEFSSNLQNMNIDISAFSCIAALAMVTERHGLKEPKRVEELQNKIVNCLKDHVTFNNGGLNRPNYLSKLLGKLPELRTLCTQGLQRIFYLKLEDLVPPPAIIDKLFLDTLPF

Vmat2 in MN9D = test: cells; assay type: cell-based; conditions: cpds tested at 10 μM, analogs of compound 87, read-out: qPCR MN9D Vmat2
Nurr1 in MN9D = test: qPCR MN9D Nurr1; assay type: cell-based; conditions: cpds tested at 10 μM, analogs of compound 87

`O=C(COc1ccc(Cl)c(Cl)c1)NCCS` [SP 85, 2-(3,4-dichlorophenoxy)-N-(2-mercaptoethyl)acetamide] was tested. Which “Transcription of Nurr1 target genes in MN9D cells” value [1] did it give?
Its value is “stimulate the transcription of Nurr1 target genes”.

What about the “Binding SPR” value (Nurr1 [2]; analogs of compound 85) of the same molecule?
Its value is “+”.

And the “Binding to the Nurr1 ligand binding domain, affinity” value [3]?
Its value is “high nanomolar affinity”.

What about the “Binding MST” value (Nurr1 [4]; analogs of compound 85) of the same molecule?
The value was “+++”.

Which fold induction at 10 µM (Pitx3 in MN9D) does the source give for `CC(=O)SCCn1cc(C(C)(C)NC(=O)c2ccc(Cl)c(Cl)c2)nn1` [SP 171, S-2-(4-(2-(3,4-dichlorobenzamido)propan-2-yl)-1H-1,2,3-triazol-1-yl)ethyl ethanethioate] here?
Its fold induction at 10 µM is > 4.

For `NCCc1ccc(O)c(O)c1` [dopamine], which “Stabilization of the Nurr1 LBD, melting temperature” value (Nurr1 LBD) is on record?
Its value is “not”.

Which results are given for `CC(=O)SCCn1cc(C(C)(C)NC(=O)c2cc(Br)cc(Br)c2)nn1` [SP 173, S-2-(4-(2-(3,5-dibromobenzamido)propan-2-yl)-1H-1,2,3-triazol-1-yl)ethyl ethanethioate]?
fold induction at 10 µM (TH in SHSY5Y): > 1.5; Luciferase (Nurr1 [5]): +++ (+++ =>4−fold)

For `CC(C)(NC(=O)c1cc(Cl)cc(Cl)c1)c1cn(CCS)nn1` [SP 87, 3,5-dichloro-N-(2-(1-(2-mercaptoethyl)-1H-1,2,3-triazol-4-yl)propan-2-yl)benzamide], which fold induction at 10 µM (TH in SHSY5Y) is on record?
Its fold induction at 10 µM is > 1.5.

And the “Transcription of Nurr1 target genes in MN9D cells” value [1]?
The value was “stimulate the transcription of Nurr1 target genes”.

And the fold induction at 10 µM (Vmat2 in MN9D)?
The fold induction at 10 µM was > 4.

What about the “Binding SPR” value (Nurr1 [2]; analogs of compound 87) of the same molecule?
The value was “+”.

And the “Binding to the Nurr1 ligand binding domain, affinity” value [3]?
The value was “high nanomolar affinity”.

What about the “Binding MST” value (Nurr1 [4]; analogs of compound 87) of the same molecule?
Its value is “+++”.

How did the fold induction at 10 µM (TH in SHSY5Y) turn out when `CC(C)(NC(=O)c1cc(Br)cc(Br)c1)c1cn(CCS)nn1` [SP 156, 3,5-dibromo-N-(2-(1-(2-mercaptoethyl)-1H-1,2,3-triazol-4-yl)propan-2-yl)benzamide] was run?
Its fold induction at 10 µM is > 4.

And the Luciferase (Nurr1 [5])?
The Luciferase was “+++ (+++ =>4−fold)”.

What about the “Binding SPR” value (Nurr1 [2]; analogs of compound 87) of the same molecule?
The value was “++”.

What about the “Binding MST” value (Nurr1 [4]; analogs of compound 87) of the same molecule?
Its value is “++”.

For `CC(=O)SCCn1cc(C(C)(C)NC(=O)c2ccc3ocnc3c2)nn1` [SP 195, S-2-(4-(2-(benzo[d]oxazole-5-carboxamido)propan-2-yl)-1H-1,2,3-triazol-1-yl)ethyl ethanethioate], which fold induction at 10 µM (Pitx3 in MN9D) is on record?
The fold induction at 10 µM was > 1.5.

What about the fold induction at 10 µM (Nurr1 in MN9D) of the same molecule?
Its fold induction at 10 µM is > 1.5.
